Structures are written as SMILES.

What all share (assay type): biochemical
One test concerns the target PAK1 (Homo sapiens, UniProt Q13153). Briefly: In vitro PAK inhibition assay (Z'-LYTE, SelectScreen), PAK1. The note with it: read-out: PAK1 IC50. The method, then:
(§1) Compounds are screened in 1% DMSO (final) in the well. For 10 point titrations, 3-fold serial dilutions are conducted. All Peptide/Kinase Mixtures are diluted to a 2× working concentration in the appropriate Kinase Buffer
The 2×PAK1/Ser/Thr 19 mixture is prepared in 50 mM HEPES pH 7.5, 0.01% BRIJ-35, 10 mM MgCl2, 1 mM EGTA.
(§2) 1. Add the following solutions to a well in a 384-well plate: • 2.5 μL of 4× Test Compound OR (100 nL 100× Test Compound plus 2.4 μL kinase buffer) • 5 μL of 2× Peptide/Kinase (PAK) Mixture • 2.5 μL of 4×ATP Solution
(§3) 3. Incubate the PAK Kinase Reaction at room temperature for 60-minutes
(§4) 4. Add 5 μL of Development Reagent Solution to each well
(§5) 6. Incubate the Development Reaction for 60-minutes
(§6) 7. Determine the fluorescence using a fluorescence plate reader
(§7) SelectScreen® Kinase Profiling Service uses XLfit from IDBS.
(§8) The representative IC50 value with a known inhibitor for each kinase was determined at the ATP bin nearest to the ATP Km app.

For a further test, the target named is PAK2 (PAK65) (Homo sapiens, UniProt Q13177). Briefly: In vitro PAK inhibition assay (Z'-LYTE, SelectScreen), PAK2. The note with it: read-out: PAK2 IC50. Here is the method:
as §1
The 2×PAK2 (PAK65)/Ser/Thr 20 mixture is prepared in 50 mM HEPES pH 7.5, 0.01% BRIJ-35, 10 mM MgCl2, 1 mM EGTA. The final 10 μL Kinase Reaction consists of 0.29-6 ng PAK2 (PAK65) and 2 μM Ser/Thr 20 in 50 mM HEPES pH 7.5, 0.01% BRIJ-35, 10 mM MgCl2, 1 mM EGTA.
as §2, §3, §4, §5, §6, §7, §8

Another test concerns the target PAK3 (Homo sapiens, UniProt O75914). Nature of the test: In vitro PAK inhibition assay (Z'-LYTE, SelectScreen), PAK3. The note with it: read-out: PAK3 IC50. Here is the method: as §1
The 2×PAK3/Ser/Thr 20 mixture is prepared in 50 mM HEPES pH 7.5, 0.01% BRIJ-35, 10 mM MgCl2, 1 mM EGTA.
as §2, §3, §4, §5, §6, §7, §8

The target in the next test is PAK4 (Homo sapiens, UniProt O96013). Nature of the test: In vitro PAK inhibition assay (Z'-LYTE, SelectScreen), PAK4. Here is the method: as §1
PAK4, sequence (O96013 whole entry): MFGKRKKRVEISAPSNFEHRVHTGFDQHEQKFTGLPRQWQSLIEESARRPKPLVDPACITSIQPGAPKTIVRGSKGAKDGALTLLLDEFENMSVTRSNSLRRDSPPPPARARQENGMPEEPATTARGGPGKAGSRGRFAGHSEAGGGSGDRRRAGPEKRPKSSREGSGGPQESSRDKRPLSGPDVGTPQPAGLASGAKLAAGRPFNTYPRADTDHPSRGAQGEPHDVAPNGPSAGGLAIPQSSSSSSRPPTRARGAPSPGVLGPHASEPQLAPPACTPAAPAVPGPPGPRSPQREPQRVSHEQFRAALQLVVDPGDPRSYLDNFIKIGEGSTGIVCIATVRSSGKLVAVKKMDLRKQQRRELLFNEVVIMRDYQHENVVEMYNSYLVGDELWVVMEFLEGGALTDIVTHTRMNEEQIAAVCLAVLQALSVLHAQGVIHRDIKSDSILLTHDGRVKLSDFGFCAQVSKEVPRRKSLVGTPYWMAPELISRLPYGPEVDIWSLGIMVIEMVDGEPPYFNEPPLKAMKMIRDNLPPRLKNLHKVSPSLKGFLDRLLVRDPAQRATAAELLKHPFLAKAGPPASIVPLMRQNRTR
The 2×PAK-4/Ser/Thr 20 mixture is prepared in 50 mM HEPES pH 7.5, 0.01% BRIJ-35, 10 mM MgCl2, 1 mM EGTA. The final 10 μL Kinase Reaction consists of 0.1-0.75 ng PAK-4 and 2 μM Ser/Thr 20 in 50 mM HEPES pH 7.5, 0.01% BRIJ-35, 10 mM MgCl2, 1 mM EGTA. After the 1 hour Kinase Reaction incubation, 5 μL of a 1:256 dilution of Development Reagent A is added.
as §2, §3, §4, §5, §6
SelectScreen® Kinase Profiling Service uses XLfit from IDBS. The dose response curve is curve fit to model number 205 (sigmoidal dose-response model).
The table below provides specifications and data around each kinase. The representative IC50 value with a known inhibitor for each kinase was determined at the ATP bin nearest to the ATP Km app.

PAK3, sequence (O75914 1-544 isoform O75914-2): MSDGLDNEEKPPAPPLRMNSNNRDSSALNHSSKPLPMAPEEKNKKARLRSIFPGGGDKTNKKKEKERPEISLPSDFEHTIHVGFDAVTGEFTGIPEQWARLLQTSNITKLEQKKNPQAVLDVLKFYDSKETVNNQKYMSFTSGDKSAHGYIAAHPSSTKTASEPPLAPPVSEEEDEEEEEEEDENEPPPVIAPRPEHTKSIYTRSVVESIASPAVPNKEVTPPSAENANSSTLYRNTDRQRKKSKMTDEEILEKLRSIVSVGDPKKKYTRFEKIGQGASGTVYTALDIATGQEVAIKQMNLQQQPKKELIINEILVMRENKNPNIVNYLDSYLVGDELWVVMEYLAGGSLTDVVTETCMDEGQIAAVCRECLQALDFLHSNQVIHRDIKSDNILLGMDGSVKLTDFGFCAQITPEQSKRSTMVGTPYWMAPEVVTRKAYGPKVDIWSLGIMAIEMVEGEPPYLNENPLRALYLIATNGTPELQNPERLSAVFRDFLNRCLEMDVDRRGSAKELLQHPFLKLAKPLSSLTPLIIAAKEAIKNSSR
PAK2 (PAK65), sequence (Q13177 whole entry): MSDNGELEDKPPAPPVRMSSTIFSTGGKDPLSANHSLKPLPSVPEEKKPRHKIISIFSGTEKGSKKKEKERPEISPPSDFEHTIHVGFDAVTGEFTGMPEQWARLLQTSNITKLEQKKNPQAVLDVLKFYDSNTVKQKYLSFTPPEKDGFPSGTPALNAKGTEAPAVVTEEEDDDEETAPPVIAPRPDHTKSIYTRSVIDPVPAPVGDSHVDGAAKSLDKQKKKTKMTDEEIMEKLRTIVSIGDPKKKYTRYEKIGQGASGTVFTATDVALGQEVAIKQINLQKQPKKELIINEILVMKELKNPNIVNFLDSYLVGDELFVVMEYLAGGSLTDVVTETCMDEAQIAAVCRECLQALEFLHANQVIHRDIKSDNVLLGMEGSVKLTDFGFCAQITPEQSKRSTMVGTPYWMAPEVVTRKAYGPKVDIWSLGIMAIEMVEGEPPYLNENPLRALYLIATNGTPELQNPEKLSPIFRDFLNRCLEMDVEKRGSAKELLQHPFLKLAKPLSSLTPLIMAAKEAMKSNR
PAK1, sequence (Q13153 whole entry): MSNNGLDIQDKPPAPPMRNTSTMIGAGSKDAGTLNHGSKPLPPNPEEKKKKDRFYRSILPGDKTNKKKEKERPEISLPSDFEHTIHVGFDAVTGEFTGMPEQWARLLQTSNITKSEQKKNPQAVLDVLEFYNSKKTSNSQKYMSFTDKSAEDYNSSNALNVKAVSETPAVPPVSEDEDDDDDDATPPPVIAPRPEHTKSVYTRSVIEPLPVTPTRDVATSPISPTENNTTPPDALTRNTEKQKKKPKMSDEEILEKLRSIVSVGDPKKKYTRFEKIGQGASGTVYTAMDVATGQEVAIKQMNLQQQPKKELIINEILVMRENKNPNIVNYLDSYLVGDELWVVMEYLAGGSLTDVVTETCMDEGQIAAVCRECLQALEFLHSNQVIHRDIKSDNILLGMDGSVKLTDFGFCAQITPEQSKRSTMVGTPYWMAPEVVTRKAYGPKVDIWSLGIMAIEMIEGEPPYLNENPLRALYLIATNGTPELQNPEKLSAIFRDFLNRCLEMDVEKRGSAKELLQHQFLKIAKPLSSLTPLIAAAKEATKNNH

Regarding `CCn1c(=O)c(-c2ccc(-c3nccnc3C)cc2Cl)cc2cnc(NC3CCNCC3)nc21` [Example 79], the half-inhibitory concentration (IC50) is 500 to 5000 nM at PAK1, 500 to 5000 nM at PAK2 (PAK65), 500 to 5000 nM at PAK3 and over 5 µM on PAK4.

On to `CCn1c(=O)c(-c2ccc(-c3nccnc3C)cc2Cl)cc2cnc(NC3CCN(C)CC3)nc21` [Example 5], for which the half-inhibitory concentration (IC50) on PAK1 is 500 to 5000 nM; on PAK2 (PAK65), 500 to 5000 nM; at PAK3 it was 500 to 5000 nM; on PAK4, over 5 µM.

For the compound `CCn1c(=O)c(-c2ccc(-c3cncc(C)n3)cc2Cl)cc2cnc(NCC3CCC(N(C)C)CC3)nc21` (centres unmarked) [Example 132], the IC50 at PAK1 was 50 to 500 nM; at PAK2 (PAK65), 50 to 500 nM; on PAK3 it was 50 to 500 nM; on PAK4, over 5 µM.

On to `CCn1c(=O)c(-c2ccc(-c3cccnc3)cc2Cl)cc2cnc(NC3CCOCC3)nc21` [Example 44], for which the IC50 at PAK1 was 50 to 500 nM; at PAK2 (PAK65) it was 50 to 500 nM; on PAK3 it was 50 to 500 nM; against PAK4, over 5 µM.

Turning to `CCn1c(=O)c(-c2ccc(-c3nccnc3C)cc2Cl)cc2cnc(N[C@@H]3CCOC3)nc21` [Example 58], the 50% inhibitory concentration (IC50) at PAK1 was 50 to 500 nM; on PAK2 (PAK65), 50 to 500 nM; on PAK3, 500 to 5000 nM; against PAK4, over 5 µM.

With `CCn1c(=O)c(-c2ccc(-c3ccnnc3)cc2Cl)cc2cnc(N[C@@H]3CCOC3)nc21` [Example 62], the IC50 at PAK1 was over 5000 nM; at PAK2 (PAK65) it was over 5000 nM; at PAK3, over 5000 nM; against PAK4, over 5 µM.

Turning to `Cc1cncc(-c2ccc(-c3cc4cnc(NC5CC5)nc4n(CCN)c3=O)c(Cl)c2)n1` [Example 111], the 50% inhibitory concentration (IC50) at PAK1 was 50 to 500 nM; at PAK2 (PAK65), 50 to 500 nM; on PAK3 it was 50 to 500 nM; at PAK4, over 5 µM.

Take `Cc1nccnc1-c1ccc(-c2cc3cnc(N[C@@H]4CCOC4)nc3n(Cc3cccnc3)c2=O)c(Cl)c1` [Example 122, (R)-6-(2-chloro-4-(3-methylpyrazin-2-yl)phenyl)-8-(pyridin-3-ylmethyl)-2-((tetrahydrofuran-3-yl)amino)pyrido[2,3-d]pyrimidin-7(8H)-one]: the half-maximal inhibitory concentration (IC50) on PAK1 was 50 to 500 nM; on PAK2 (PAK65), under 50 nM; at PAK3, 50 to 500 nM; at PAK4, over 5 µM.

In the case of `Cc1nccnc1-c1ccc(-c2cc3cnc(N[C@@H]4CCOC4)nc3n(Cc3ccncc3)c2=O)c(Cl)c1` [Example 124], the 50% inhibitory concentration (IC50) on PAK1 was 50 to 500 nM; at PAK2 (PAK65), 50 to 500 nM; on PAK3, 500 to 5000 nM; against PAK4 it was over 5 µM.

Consider `Cc1nccnc1-c1ccc(-c2cc3cnc(N[C@H]4CCOC4)nc3n(Cc3ccncc3)c2=O)c(Cl)c1` [Example 126], for which the IC50 was 50 to 500 nM at PAK1, 50 to 500 nM at PAK2 (PAK65), 50 to 500 nM on PAK3 and over 5 µM against PAK4.

As for `Cc1nccnc1-c1ccc(-c2cc3cnc(NC4CCOCC4)nc3n(Cc3ccccc3)c2=O)c(Cl)c1` [Example 16], the 50% inhibitory concentration (IC50) on PAK1 was under 50 nM; at PAK2 (PAK65) it was under 50 nM; on PAK3, 50 to 500 nM; against PAK4, over 5 µM.

`CCn1c(=O)c(-c2ccc(-c3nccnc3C)cc2Cl)cc2cnc(NC3CC[S+]([O-])CC3)nc21` (centres unmarked) [Example 74]: the concentration for half-maximal inhibition (IC50) was 50 to 500 nM at PAK1, 50 to 500 nM on PAK2 (PAK65), 500 to 5000 nM at PAK3 and over 5 µM against PAK4.

With `CCn1c(=O)c(-c2ccc(-c3cccnc3O)cc2Cl)cc2cnc(NC3CCOCC3)nc21` [Example 48], the IC50 on PAK1 was 50 to 500 nM; at PAK2 (PAK65), 50 to 500 nM; at PAK3 it was 50 to 500 nM; on PAK4 it was over 5 µM.

On to `CCn1c(=O)c(-c2ccc(-c3nccnc3C)cc2Cl)cc2cnc(NCCC3CCN(C)CC3)nc21` [Example 91], for which the IC50 at PAK1 was under 50 nM; at PAK2 (PAK65), under 50 nM; at PAK3, 50 to 500 nM; against PAK4, over 5 µM.

By IC50 is commonly meant the point on the concentration scale where inhibition reaches its midpoint.
